Assay results from paper PMC6821791, “Phase I Trial of Pyragrel, a Novel Thromboxane Synthetase Inhibitor, to Evaluate the Safety, Tolerability, and Pharmacokinetics in Healthy Volunteers” (Frontiers in Pharmacology, 2019).

Legend:
[1] = dog, in vivo; cited from earlier work
[2] = parameters: method as in Morio et al., 1993; settings: patients with ozagrel treatment; ref Morio et al., 1993; cited from earlier work
[3] = Safety assessment, adverse event monitoring (Parts I-V); format: in vivo, human
Protocol: Safety was assessed using subject interviews and adverse event (AE) monitoring. All subjects received laboratory examinations after termination of drug infusion for 48 or 72 h; the examination items are the same as those listed in the screening process. If clinical abnormalities were present, further follow-ups were required until the laboratory test values or vital sign levels of the abnormal items returned to normal values or stable levels. The clinical significance of abnormal laboratory test values was determined by the physicians.
The vital signs were analyzed by repeated measures analysis of variance (ANOVA), and laboratory indexes were analyzed by the paired t-test and one-way ANOVA. Comparison within different dose regimens of pyragrel or among different treatments (pyragrel, ozagrel, and placebo) or production of urinary 11-D-HTXB2 among groups was performed with the t-test, and expected values were considered along with the actual situation. Descriptive methods were used to compare the incidence of AE between pyragrel and ozagrel/placebo or in different pyragrel dose regimens; the normal/abnormal changes in laboratory examinations before and after administration were described.

[4] = Part I, controls of the 30 mg dose group (ozagrel 80 mg)
[5] = Part I, controls of the 120 mg dose group (ozagrel 80 mg)
[6] = Part I, controls of the 180 mg dose group (ozagrel 80 mg)

Compound: O=C(O)/C=C/c1ccc(Cn2ccnc2)cc1 [Ozagrel, Sodium ozagrel, reference compound]
- Maximum safe dose [1]: 12.5 mg/kg/day
- Incidence rate of severe bleeding [2]: up to 5%
- Number of AEs in Part I ([3]; Part I, 36 pyragrel-treated subjects, 8 subjects of ozagrel treatment): 3
- AE Type, Ozagrel/placebo [3, 4]: DB elevation
- Number of AEs, Ozagrel/placebo [3, 4]: 1
- Number of AEs, Ozagrel/placebo ([3]; Part I, controls of the 60 mg dose group (ozagrel 80 mg)): 0
- AE Type, Ozagrel/placebo [3, 5]: DB elevation
- Number of AEs, Ozagrel/placebo [3, 5]: 1
- AE Type, Ozagrel/placebo [3, 6]: abdominal pain
- Number of AEs, Ozagrel/placebo [3, 6]: 1
- Number of AEs, Ozagrel/placebo ([3]; Part I, listed as of the 240 mg dose group): 0
- Number of AEs, Ozagrel/placebo ([3]; Part I, listed as of the 300 mg dose group): 0
- Number of AEs, Ozagrel/placebo ([3]; Total): 3
- Incidence of elevation in conjugated bilirubin (DB elevation) ([3]; all parts, 12/68 subjects of pyragrel, 2/8 subjects of ozagrel): 25%
